The target in the assay is T1, DYRK1B (dual-specificity tyrosine phosphorylation-regulated kinase 1B) (Homo sapiens, UniProt Q9Y463).
T1 construct: Human DYRK1B recombinant protein (#PV4649)
Description: LanthaScreen Eu Kinase Binding Assay (TR-FRET displacement of kinase tracer […]), recombinant protein. On the technique in general: TR-FRET usually uses a lanthanide donor and a delayed reading to cut background.

For orientation: IC50 means the concentration needed to halve the response being measured.

Structures are written as SMILES.

T1 sequence (Q9Y463 whole entry): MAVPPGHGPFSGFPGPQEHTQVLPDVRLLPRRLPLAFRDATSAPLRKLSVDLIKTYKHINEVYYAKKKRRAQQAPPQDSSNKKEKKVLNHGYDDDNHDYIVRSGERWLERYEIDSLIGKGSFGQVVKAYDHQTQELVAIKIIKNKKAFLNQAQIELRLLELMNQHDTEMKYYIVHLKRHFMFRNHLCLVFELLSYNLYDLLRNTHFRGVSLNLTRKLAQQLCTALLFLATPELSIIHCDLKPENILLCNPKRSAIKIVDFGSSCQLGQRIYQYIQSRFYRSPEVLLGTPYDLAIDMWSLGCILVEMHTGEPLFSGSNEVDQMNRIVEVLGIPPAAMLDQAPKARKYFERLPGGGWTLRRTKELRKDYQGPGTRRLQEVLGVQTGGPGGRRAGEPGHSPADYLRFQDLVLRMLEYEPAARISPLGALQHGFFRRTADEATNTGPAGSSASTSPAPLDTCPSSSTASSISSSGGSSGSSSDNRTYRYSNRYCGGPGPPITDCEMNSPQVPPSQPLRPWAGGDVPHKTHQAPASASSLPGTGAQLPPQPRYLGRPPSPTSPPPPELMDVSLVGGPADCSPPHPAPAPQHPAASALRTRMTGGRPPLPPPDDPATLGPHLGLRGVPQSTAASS

As for `COc1ccc(-c2n[nH]c3ncc(-c4ccc(NC(C)=O)cc4)cc23)cc1` [KS-40070, N-(4-(3-(4-methoxyphenyl)-1H-pyrazolo [3,4-b]pyridin-5-yl)phenyl)acetamide], the concentration for half-maximal inhibition (IC50) came out at 18 nM.

The record behind these values is publication PMC12339561, “Discovery of a selective dual-specificity tyrosine phosphorylation-regulated kinase 1B inhibitor with anti-adipogenic and anti-diabetic activities” (Frontiers in Pharmacology, 2025).
